Measured values reported in patent US7053107B2, “Indazole compounds and pharmaceutical compositions for inhibiting protein kinases, and methods for their use” (Agouron Pharmaceuticals, Inc., priority 2002, dated 2006).

What was measured:
FGF-R1 = target: T1, FGF-R1 (Homo sapiens, UniProt P11362, C488A/C584S/L457V); assay: Fibroblast Growth Factor (FGF-R) spectrophotometric assay; type: biochemical; settings: for inhibition at 1 µM: 1 μM compound, read-out: FGF-P % inhibit @1 μM
T1 construct: starting from the endogenous methionine residue 456 to glutamate 766; made in house; host or cells: baculovirus vector expression system
Summary of the method: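 Baculovirus-expressed human FGF-R1 kinase domain (Met456–Glu766; L457V/C488A/C584S), 50 nM, with 2 mM ATP and 15 mM poly(E4Y1) in HEPES pH 7.5. ADP formation coupled via PK/LDH to NADH oxidation, read as A340 decrease. Ki from activity across varying compound concentrations.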

[1] = tested on: human umbilical vein endothelial cells (HUVEC); assay: HUVEC Proliferation Assay (VEGF-stimulated); type: cell-based
Summary of the method: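 Serum-starved HUVEC (passage 3–4, F12K + 1% FBS, 24 h) pretreated 1 h with compound (final DMSO 0.1%), then stimulated with 6 ng/mL VEGF for 72 h. Proliferation read by 4 h MTT reduction, absorbance 595. IC50 from seven-point 0.5-log curves in triplicate; screening % inhibition normalised to VEGF-only and starvation controls.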

[2] = Human Liver Microsome (HLM) Assay; type: in vitro ADME
Method: Compound metabolism in human liver microsomes was measured by LC-MS analytical assay procedures as follows. First, human liver microsomes (HLM) were thawed and diluted to 5 mg/mL with cold 100 mM potassium phosphate (KPO4) buffer. Appropriate amounts of KPO4 buffer, NADPH-regenerating solution (containing B-NADP, glucose-6-phosphate, glucose-6-phosphate dehydrogenase, and MgCl2), and HLM were preincubated in 13×100 mm glass tubes at 37 C. for 10 min. (3 tubes per test compound—triplicate). Test compound (5 µM final) was added to each tube to initiate reaction and was mixed by gentle vortexing, followed by incubation at 37° C. […] Samples were centrifuged at 4000 rpm for 20 min. to precipitate proteins and salt (Beckman Allegra 6KR, S/N ALK98DO6, #634). Supernatant was transferred to new 12×75 mm glass tubes and evaporated by Speed-Vac centrifugal vacuum evaporator. Samples were reconstituted in 200 μL 0.1% formic acid/acetonitrile (90/10) and vortexed vigorously to dissolve. The samples were then transferred to separate polypropylene microcentrifuge tubes and centrifuged at 14000×g for 10 min. (Fisher Micro 14, S/N M0017580). […]
The combined compound samples were injected into the LC-MS system, composed of a Hewlett-Packard HP 1100 diode array HPLC and a Micromass Quattro II triple quadruple mass spectrometer operating in positive electrospray SIR mode (programmed to scan specifically for the molecular ion of each test compound. Each test compound peak was integrated at each timepoint. […]

T1 sequence (P11362 456-766 L457V/C488A/C584S): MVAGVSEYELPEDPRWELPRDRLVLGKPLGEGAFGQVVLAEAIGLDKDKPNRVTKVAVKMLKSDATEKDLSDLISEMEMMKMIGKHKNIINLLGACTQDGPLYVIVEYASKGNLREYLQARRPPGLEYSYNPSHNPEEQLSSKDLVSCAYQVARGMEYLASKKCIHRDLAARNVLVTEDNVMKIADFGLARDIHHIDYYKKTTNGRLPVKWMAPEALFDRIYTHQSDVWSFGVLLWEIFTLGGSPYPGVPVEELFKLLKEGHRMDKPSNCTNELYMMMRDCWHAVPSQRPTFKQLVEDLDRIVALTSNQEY

Compound	inhibition at 1 µM (FGF-R1)	IC50 [1]	% remaining (HLM) ([2]; @0.5 h)	% remaining (HLM) ([2]; @2 h)	Ki (FGF-R1; second value in the FGF-P cell, Ki)
Cc1ccnc(/C=C/c2n[nH]c3cc(Nc4ccccc4C(=O)NC4CC4)ccc23)c1 [Example 2(h), N-Cyclopropyl-2-{3-[(E)-2-(4-methyl-pyridin-2-yl)-vinyl]-1H-indazol-6-ylamino}-benzamide]	75%	1.6 nM	74@0.5 h %		
O=C(NC1CC1)c1ccccc1Nc1ccc2c(/C=C/c3ccccn3)n[nH]c2c1 [Example 3(d), N-Cyclopropyl-2-[3-((E)-2-pyridin-2-yl-vinyl)-1H-indazol-6-ylamino]-benzamide]	80%	0.4 nM		68@2 h %	
COc1ccccc1CNC(=O)c1ccccc1Nc1ccc2c(/C=C/c3ccccn3)n[nH]c2c1 [Example 3(h), N-(2-Methoxy-benzyl)-2-[3-((E)-2-pyridin-2-yl-vinyl)-1H-indazol-6-ylamino]-benzamide]	85%	1.6 nM	75@0.5 h %		
O=C(NC1CCC1)c1ccccc1Nc1ccc2c(/C=C/c3ccccn3)n[nH]c2c1 [Example 3(j), N-Cyclobutyl-2-[3-((E)-2-pyridin-2-yl-vinyl)-1H-indazol-6-ylamino]-benzamide]	43%	1.7 nM	65@0.5 h %		
C=C(C)CNC(=O)c1ccccc1Nc1ccc2c(/C=C/c3ccccn3)n[nH]c2c1 [Example 3(k), N-(2-Methyl-allyl)-2-[3-((E)-2-pyridin-2-yl-vinyl)-1H-indazol-6-ylamino]-benzamide]	36%	0.8 nM	75@0.5 h %		
Cc1cc(C)nc(/C=C/c2n[nH]c3cc(Nc4ccccc4C(=O)NCC#CCO)ccc23)c1 [Example 10, 2-{3-[(E)-2-(4,6-Dimethyl-pyridin-2-yl)-vinyl]-1H-indazol-6-ylamino}-N-(4-hydroxy-but-2-ynyl)-benzamide]	38%	0.67 nM	80@0.5 h %		197 nM
C#CCNC(=O)c1ccccc1Nc1ccc2c(/C=C/c3cc(C)ccn3)n[nH]c2c1 [Example 32, 2-{3-[(E)-2-(4-Methyl-pyridin-2-yl)-vinyl]-1H-indazol-6-ylamino}-N-prop-2-ynyl-benzamide]	70%	0.61 nM	97@0.5 h %		
O=C(NCC#CCO)c1ccccc1Nc1ccc2c(/C=C/c3ccccn3)n[nH]c2c1 [Example 64, N-(4-Hydroxy-but-2-ynyl)-2-[3-(2-pyridin-2-yl-vinyl)-1H-indazol-6-ylamino]-benzamide]	39%	0.15 nM	66@0.5 h %		
